Results taken from patent US8178571B2, “Unsubstituted and substituted 4-benzyl-1,3-dihydro-imidazole-2-thiones acting as specific or selective alpha2 adrenergic agonists and methods for using the same” (Allergan, Inc., priority 2004, dated 2012).

How the values were obtained:
Assay type in all cases: cell-based
[1] = biological target: T1, alpha2B adrenergic receptor (Homo sapiens, UniProt P18089); assay: Receptor Selection and Amplification Technology (RSAT) assay, alpha2B; settings: for Intrinsic Activity Alpha 2B: RSAT, NIH-3T3 cells, ratio of maximal effect to that of standard full agonist brimonidine (UK14304), NA = not active at concentrations less than 10 micromolar; for Specificity or selectivity for alpha2B (and/or alpha2C) over alpha2A adrenergic receptors: statement in words, RSAT assay
T1 construct: expressed in transfected cells; host or cells: NIH-3T3 cells
T1 sequence (P18089 1-450): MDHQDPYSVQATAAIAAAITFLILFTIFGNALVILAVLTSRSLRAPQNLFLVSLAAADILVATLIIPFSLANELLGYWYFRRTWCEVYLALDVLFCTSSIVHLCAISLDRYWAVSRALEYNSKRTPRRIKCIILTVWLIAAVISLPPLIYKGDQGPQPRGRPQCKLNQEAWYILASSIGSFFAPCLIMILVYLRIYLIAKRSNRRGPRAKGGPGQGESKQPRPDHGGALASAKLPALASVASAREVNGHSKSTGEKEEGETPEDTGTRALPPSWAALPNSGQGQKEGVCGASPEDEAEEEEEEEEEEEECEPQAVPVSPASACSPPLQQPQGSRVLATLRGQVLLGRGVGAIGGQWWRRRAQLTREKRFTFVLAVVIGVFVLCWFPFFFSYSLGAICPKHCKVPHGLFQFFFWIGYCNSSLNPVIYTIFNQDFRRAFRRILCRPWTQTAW
Description: (§1) The imidazole-2-thione compounds of Formula 1 and the novel compounds 1 through 5 are used in accordance with the present invention as agonists of alpha2 adrenergic receptors. Some compounds of Formula 1 may act as specific or selective agonists of alpha2B and/or to alpha2C adrenergic receptors, in preference over alpha2A adrenergic receptors. […] The specific or selective activity of the compounds of Formula 1 in general and of the novel compounds of the invention can be tested in an assay titled Receptor Selection and Amplification technology (RSAT) assay, which is described in the publication by Messier et. Al., 1995, Pharmacol. Toxicol. 76, pp. 308-311 (incorporated herein by reference) and is also described below. Another reference pertinent to this assay is Conklin et al. (1993) Nature 363:274-6, Receptor Selection and Amplification Technology (RSAT) assay, also incorporated herein by reference.
The RSAT assay measures a receptor-mediated loss of contact inhibition that results in selective proliferation of receptor-containing cells in a mixed population of confluent cells. The increase in cell number is assessed with an appropriate transfected marker gene such as beta-galactosidase, the activity of which can be easily measured in a 96-well format. Receptors that activate the G protein, Gq, elicit this response. Alpha2 receptors, which normally couple to Gi, activate the RSAT response when coexpressed with a hybrid Gq protein that has a Gi receptor recognition domain, called Gq/i5.
NIH-3T3 cells are plated at a density of 2×10^6 cells in 15 cm dishes and maintained in Dulbecco's modified Eagle's medium supplemented with 10% calf serum. One day later, cells are cotransfected by calcium phosphate precipitation with mammalian expression plasmids encoding p-SV-beta-galactosidase (5-10 μg), receptor (1-2 μg) and G protein (1-2 μg). 40 μg salmon sperm DNA may also be included in the transfection mixture. Fresh media is added on the following day and 1-2 days later, cells are harvested and frozen in 50 assay aliquots. Cells are thawed and 100 μl added to 100 μl aliquots of various concentrations of drugs in triplicate in 96-well dishes. Incubations continue 72-96 hr at 37° C. After washing with phosphate-buffered saline, beta-galactosidase enzyme activity is determined by adding 200 μl of the chromogenic substrate (consisting of 3.5 mM o-nitrophenyl-beta-D-galactopyranoside and 0.5% nonidet P-40 in phosphate buffered saline), incubating overnight at 30° C. and measuring optical density at 420 nm. The absorbance is a measure of enzyme activity, which depends on cell number and reflects a receptor-mediated cell proliferation. The efficacy or intrinsic activity is calculated as a ratio of the maximal effect of the drug to the maximal effect of a standard full agonist for each receptor subtype. Brimonidine, also called UK14304, the chemical structure of which is shown below, is used as the standard agonist for the alpha2A, alpha2B and alpha2C receptors.

[2] = biological target: T2, alpha2A adrenergic receptor (Homo sapiens, UniProt P08913); assay: Receptor Selection and Amplification Technology (RSAT) assay, alpha2A; settings: NIH-3T3 cells, ratio of maximal effect to that of standard full agonist brimonidine (UK14304), NA = not active at concentrations less than 10 micromolar
T2 construct: expressed in transfected cells; host or cells: NIH-3T3 cells
T2 sequence (P08913 1-465): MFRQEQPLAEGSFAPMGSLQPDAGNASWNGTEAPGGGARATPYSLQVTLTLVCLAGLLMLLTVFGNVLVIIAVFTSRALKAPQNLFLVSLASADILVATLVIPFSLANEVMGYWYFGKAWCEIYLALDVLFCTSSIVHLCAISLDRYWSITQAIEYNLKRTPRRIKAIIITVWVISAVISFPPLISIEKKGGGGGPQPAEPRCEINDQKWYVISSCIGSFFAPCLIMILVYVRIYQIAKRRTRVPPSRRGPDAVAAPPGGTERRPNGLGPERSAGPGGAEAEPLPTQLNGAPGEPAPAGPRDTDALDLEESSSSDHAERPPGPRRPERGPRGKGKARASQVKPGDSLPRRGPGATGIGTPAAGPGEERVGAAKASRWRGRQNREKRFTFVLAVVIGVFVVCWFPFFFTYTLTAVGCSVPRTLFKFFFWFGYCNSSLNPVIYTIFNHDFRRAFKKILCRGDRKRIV
Description: as §1, with “Another reference pertinent to this assay is Conklin et al. (1993) Nature 363:274-6, Receptor Selection and Amplification Technology (RSAT) assay, also incorporated herein by reference.” left out
(§2) The RSAT assay measures a receptor-mediated loss of contact inhibition that results in selective proliferation of receptor-containing cells in a mixed population of confluent cells. The increase in cell number is assessed with an appropriate transfected marker gene such as beta-galactosidase, the activity of which can be easily measured in a 96-well format. […]
(§3) NIH-3T3 cells are plated at a density of 2×10^6 cells in 15 cm dishes and maintained in Dulbecco's modified Eagle's medium supplemented with 10% calf serum. […] The absorbance is a measure of enzyme activity, which depends on cell number and reflects a receptor-mediated cell proliferation. […]

[3] = biological target: T3, alpha2C adrenergic receptor (Homo sapiens, UniProt P18825); assay: Receptor Selection and Amplification Technology (RSAT) assay, alpha2C; settings: NIH-3T3 cells, ratio of maximal effect to that of standard full agonist brimonidine (UK14304), NA = not active at concentrations less than 10 micromolar
T3 construct: expressed in transfected cells; host or cells: NIH-3T3 cells
T3 sequence (P18825 1-462): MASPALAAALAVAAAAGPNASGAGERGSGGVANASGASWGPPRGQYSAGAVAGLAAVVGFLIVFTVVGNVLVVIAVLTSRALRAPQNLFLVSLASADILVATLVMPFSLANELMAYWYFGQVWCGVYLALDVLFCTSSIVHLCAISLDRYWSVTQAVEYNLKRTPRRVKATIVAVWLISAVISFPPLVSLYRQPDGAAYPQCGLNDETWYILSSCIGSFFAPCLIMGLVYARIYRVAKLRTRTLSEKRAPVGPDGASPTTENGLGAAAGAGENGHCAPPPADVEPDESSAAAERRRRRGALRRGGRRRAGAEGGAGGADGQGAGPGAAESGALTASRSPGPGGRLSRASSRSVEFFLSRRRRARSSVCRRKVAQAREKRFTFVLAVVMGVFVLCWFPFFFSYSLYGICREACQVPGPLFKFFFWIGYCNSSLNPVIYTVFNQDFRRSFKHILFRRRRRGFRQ
Description: as §1, with “Another reference pertinent to this assay is Conklin et al. (1993) Nature 363:274-6, Receptor Selection and Amplification Technology (RSAT) assay, also incorporated herein by reference.” left out
as §2, §3

## S=c1[nH]cc(Cc2ccc(Cl)cc2Cl)[nH]1 [Compound 5, 4-(2,4-dichloro-benzyl)-1,3-dihydro-imidazole-2-thione]
[1]
  Intrinsic Activity Alpha 2B: 0.95
  Specificity or selectivity for alpha2B (and/or alpha2C) over alpha2A adrenergic receptors: specific agonists of alpha2B agonists in preference over alpha2A and alpha2C adrenergic receptors

## Fc1c(Cl)cccc1Cc1c[nH]c(=S)[nH]1 [Compound 2, 4-(3-chloro-2-fluoro-benzyl)-1,3-dihydro-imidazole-2-thione]
[2]
  Intrinsic Activity Alpha 2A: 0.78
[1]
  Intrinsic Activity Alpha 2B: 1.05

## S=c1[nH]cc(Cc2c(Cl)cccc2Cl)[nH]1 [Compound 1, 4-(2,6-dichloro-benzyl)-1,3-dihydro-imidazole-2-thione]
[2]
  Intrinsic Activity Alpha 2A: 0.74
[3]
  Intrinsic Activity Alpha 2C: 1.18
[1]
  Intrinsic Activity Alpha 2B: 1.11

## Fc1ccc(Cc2c[nH]c(=S)[nH]2)cc1 [Compound 4, 4-(4-fluoro-benzyl)-1,3-dihydro-imidazole-2-thione]
[1]
  Intrinsic Activity Alpha 2B: 0.92
  Specificity or selectivity for alpha2B (and/or alpha2C) over alpha2A adrenergic receptors: specific agonists of alpha2B agonists in preference over alpha2A and alpha2C adrenergic receptors

## N#Cc1ccc(-c2ccccc2Cc2c[nH]c(=S)[nH]2)cc1 [Compound 6, 2′-(2-Thioxo-2,3-dihydro-1H-imidazol-4-ylmethyl)-biphenyl-4-carbonitrile]
[3]
  Intrinsic Activity Alpha 2C: 0.71
[1]
  Intrinsic Activity Alpha 2B: 0.70

## Fc1ccccc1Cc1c[nH]c(=S)[nH]1 [Compound 3, 4-(2-fluoro-benzyl)-1,3-dihydro-imidazole-2-thione]
[1]
  Intrinsic Activity Alpha 2B: 1.3
  Specificity or selectivity for alpha2B (and/or alpha2C) over alpha2A adrenergic receptors: specific agonists of alpha2B agonists in preference over alpha2A and alpha2C adrenergic receptors
